Results published in ChEMBL document CHEMBL1150947, “Indole alkaloids from the tunicate Aplidium meridianum” (J Nat Prod, 1998).

Assay: Cytotoxicity against mouse LMM3 cells
Assay type: functional, cell-based

Nc1nccc(-c2c[nH]c3cc(Br)cc(O)c23)n1 [MERIDIANIN B]
IC50: 11.4 µM

Nc1nccc(-c2c[nH]c3ccc(Br)cc23)n1 [MERIDIANIN C]
IC50: 9.3 µM
